This passage reports Ki and EC50 results from patent publication US8202865B2, “Oxadiazole derivatives” (Merck Serono SA, priority 2007, dated 2012).

Molecules are shown by their SMILES. Structures can show the parent of a compound that is named as a salt.

The target in assay [1] is T1, S1P1 (Homo sapiens, UniProt P21453).
T1 construct: expressed in transfected cells; host or cells: CHO cells (membranes)
Briefly: Receptor binding assay, [33P]sphingosine 1-phosphate, membranes, WGA SPA beads. The settings on record: membranes from CHO cells expressing S1P1; 25 pM [33P]S1P; 60 min RT. In outline:
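CHO-cell membranes expressing S1P1 incubated with 25 pM [33P]S1P in 50 mM HEPES pH 7.5, 5 mM MgCl2, 100 mM NaCl, 0.4% fatty acid-free BSA with WGA SPA beads for 60 min at RT. Bound radioactivity counted by scintillation proximity; specific binding defined using 1000-fold excess unlabeled S1P.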

Assay [2] addresses T1, S1P1. The assay is described as follows: 35S-GTPγS binding, S1P1 membranes. In kind it is biochemical. Particulars: membranes from CHO cells expressing S1P1; 60 min 30° C. In outline: (§1)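 CHO-cell membranes expressing S1P1 or S1P3 (1-10 μg) incubated with compounds in 20 mM HEPES pH 7.4, 10 mM MgCl2, 140 mM NaCl, saponin, 0.2% BSA, 1.7 μM GDP and [35S]-GTPγS (20 μl of 1.5 nM added), 60 min at 30° C. Bound radioactivity expressed as % of S1P activation.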

Assay [3] addresses T2, S1P3 (Homo sapiens, UniProt Q99500).
T2 construct: expressed in transfected cells; host or cells: CHO cells (membranes)
Briefly: 35S-GTPγS binding, S1P3 membranes. It is filed as biochemical. The settings on record: membranes from CHO cells expressing S1P3; 60 min 30° C. The method, boiled down: as §1
(GTPγS resists hydrolysis and so accumulates on activated G proteins.)

T2 sequence (Q99500 whole entry, species assumed): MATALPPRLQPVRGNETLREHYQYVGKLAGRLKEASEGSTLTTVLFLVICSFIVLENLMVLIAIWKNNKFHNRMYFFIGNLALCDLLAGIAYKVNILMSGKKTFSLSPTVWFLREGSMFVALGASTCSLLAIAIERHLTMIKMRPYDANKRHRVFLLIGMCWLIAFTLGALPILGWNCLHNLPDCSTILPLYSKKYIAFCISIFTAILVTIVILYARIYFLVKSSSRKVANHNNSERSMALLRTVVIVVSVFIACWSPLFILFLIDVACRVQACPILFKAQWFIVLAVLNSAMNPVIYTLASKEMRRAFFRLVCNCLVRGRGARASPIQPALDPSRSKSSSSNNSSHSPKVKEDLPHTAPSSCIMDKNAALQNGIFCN
T1 sequence (P21453 whole entry, species assumed): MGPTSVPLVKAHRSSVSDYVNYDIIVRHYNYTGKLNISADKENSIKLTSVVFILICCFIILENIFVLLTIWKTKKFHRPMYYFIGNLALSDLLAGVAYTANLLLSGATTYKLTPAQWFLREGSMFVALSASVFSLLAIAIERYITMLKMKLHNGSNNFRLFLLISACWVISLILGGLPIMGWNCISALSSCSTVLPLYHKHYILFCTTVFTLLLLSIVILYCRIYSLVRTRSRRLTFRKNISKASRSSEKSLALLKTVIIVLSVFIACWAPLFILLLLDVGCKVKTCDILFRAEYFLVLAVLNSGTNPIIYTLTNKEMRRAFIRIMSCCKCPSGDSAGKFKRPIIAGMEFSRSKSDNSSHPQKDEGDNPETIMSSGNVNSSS

As usually defined, the Ki is the dissociation constant of the complex between target and ligand, obtained from inhibition or displacement. Low readings indicate higher affinity, high ones lower affinity. Usually EC50 stands for the concentration that produces a half-maximal response. Read a low EC50 as higher potency in that assay. As to `COCc1cc(-c2nc(-c3ccc(C(=O)NCC(=O)O)c(F)c3)no2)ccc1-c1ccccc1C` [Example 124, N-(2-fluoro-4-{5-[2-(methoxymethyl)-2′-methylbiphenyl-4-yl]-1,2,4-oxadiazol-3-yl}benzoyl)glycine], the Ki in assay [1] was determined as 2 nM. Also, the EC50 in assay [2] amounted to 22 nM; in assay [3] it was 1000 nM.
Taken in the same sequence, the figures for `COCc1cc(-c2nc(-c3ccc(C(=O)NCCCC(=O)O)c(F)c3)no2)ccc1-c1ccccc1C` [Example 127, 4-[(2-fluoro-4-{5-[2-(methoxymethyl)-2′-methylbiphenyl-4-yl]-1,2,4-oxadiazol-3-yl}benzoyl)amino]butanoic acid] were 2.1 nM, 6 nM and 1220 nM.
Consider `COCc1cc(-c2nc(-c3cccc(CN(C)CC(=O)O)c3)no2)ccc1-c1ccccc1C` [Example 141, N-(3-{5-[2-(methoxymethyl)-2′-methylbiphenyl-4-yl]-1,2,4-oxadiazol-3-yl}benzyl)-N-methylglycine, Hydrochloride salt], for which the affinity in assay [1], expressed as Ki, was 1.4 nM. Moreover, the EC50 came out at 0.85 nM in assay [2] and 621 nM in assay [3].
The like results for `CCc1ccccc1-c1ccc(-c2nc(-c3cccc(CN(C)CC(=O)O)c3)no2)cc1COC` [Example 143, N-(3-{5-[2′-ethyl-2-(methoxymethyl)biphenyl-4-yl]-1,2,4-oxadiazol-3-yl}benzyl)-N-methylglycine, hydrochloride salt] were, in that order, 0.8 nM, 0.6 nM and 281 nM.
`COCc1cc(-c2nc(-c3ccc(F)c(CN(C)CC(=O)O)c3)no2)ccc1-c1ccccc1C` [Example 146, N-(2-fluoro-5-{5-[2-(methoxymethyl)-2′-methylbiphenyl-4-yl]-1,2,4-oxadiazol-3-yl}benzyl)-N-methylglycine, Hydrochloride salt] had a Ki in assay [1] of 0.8 nM. Moreover, the values for the EC50 in assay [2] and in assay [3] were 2.5 nM and 422 nM, respectively.
The like results for `CCc1ccccc1-c1ccc(-c2nc(-c3ccc(F)c(CN(C)CC(=O)O)c3)no2)cc1COC` [Example 147, N-(5-{5-[2′-ethyl-2-(methoxymethyl)biphenyl-4-yl]-1,2,4-oxadiazol-3-yl}-2-fluorobenzyl)-N-methylglycine, Hydrochloride salt] were, in that order, 2 nM, 1.5 nM and 754 nM.
Taken in the same sequence, the figures for `COCc1cc(-c2nc(-c3cccc(CN(C)CC(=O)O)c3)no2)ccc1OC(C)C` [Example 148, N-(3-{5-[4-isopropoxy-3-(methoxymethyl)phenyl]-1,2,4-oxadiazol-3-yl}benzyl)-N-methylglycine, Hydrochloride salt] were 0.7 nM, 4 nM and 2350 nM.
Taken in the same sequence, the figures for `COCc1cc(-c2nc(-c3cccc(CN(C)CCC(=O)O)c3)no2)ccc1-c1ccccc1C` [Example 150, N-(3-{5-[2-(methoxymethyl)-2′-methylbiphenyl-4-yl]-1,2,4-oxadiazol-3-yl}benzyl)-N-methyl-beta-alanine] were 0.3 nM, 0.5 nM and 95 nM.
On to `COCc1cc(-c2nc(-c3cccc(CNC4(C(=O)O)CC4)c3)no2)ccc1-c1ccccc1C` [Example 151, 1-[(3-{5-[2-(methoxymethyl)-2′-methylbiphenyl-4-yl]-1,2,4-oxadiazol-3-yl}benzyl)amino]cyclopropanecarboxylic acid], for which the Ki in assay [1] was determined as 6.5 nM. Also, the EC50 in assay [2] was determined as 4.8 nM; in assay [3], 175 nM.
The like results for `COCc1cc(-c2nc(-c3ccc(OCC(=O)O)c(F)c3)no2)ccc1-c1ccccc1C` [Example 166, (2-fluoro-{5-[2-(methoxymethyl)-2′-methylbiphenyl-4-yl]-1,2,4-oxadiazol-3-yl}phenoxy)acetic acid] were, in that order, 11 nM, 14 nM and 219 nM.
Taken in the same sequence, the figures for `COCc1cc(-c2nc(-c3cccc(S(N)(=O)=O)c3)no2)ccc1-c1ccccc1C` [Example 170, 3-{5-[2-(methoxymethyl)-2′-methylbiphenyl-4-yl]-1,2,4-oxadiazol-3-yl}benzenesulfonamide] were 0.8 nM, 0.7 nM and 214 nM.
The like results for `Cc1ccccc1-c1ccc(-c2nc(-c3ccc(C(N)=O)c(F)c3)no2)cc1C` [Example 171, 4-[5-(2,2′-dimethylbiphenyl-4-yl)-1,2,4-oxadiazol-3-yl]-2-fluorobenzamide] were, in that order, 39 nM, 19 nM and more than 20000 nM.
Take `COCc1cc(-c2nc(-c3ccc(C(=O)NCCNC(C)=O)c(F)c3)no2)ccc1-c1ccccc1C` [Example 174, N-[2-(acetylamino)ethyl]-2-fluoro-4-{5-[2-(methoxymethyl)-2′-methylbiphenyl-4-yl]-1,2,4-oxadiazol-3-yl}benzamide]: in assay [1], affinity was put at a Ki of 3.4 nM. Also, the EC50 in assay [2] was 17 nM; in assay [3], 1420 nM.
For the molecule `COCc1cc(-c2nc(-c3ccc(C(=O)NCCc4nnn[nH]4)c(F)c3)no2)ccc1-c1ccccc1C` [Example 177, 2-fluoro-4-{5-[2-(methoxymethyl)-2′-methylbiphenyl-4-yl]-1,2,4-oxadiazol-3-yl}-N-[2-(1H-tetrazol-5-yl)ethyl]benzamide], the Ki in assay [1] was found to be 2 nM. Moreover, the values for the EC50 in assay [2] and in assay [3] were 1.3 nM and 1150 nM, respectively.
Taken in the same sequence, the figures for `COCc1cc(-c2nc(-c3ccc(C(N)=O)cc3)no2)ccc1-c1ccccc1C` [Example 178, 4-{5-[2-(methoxymethyl)-2′-methylbiphenyl-4-yl]-1,2,4-oxadiazol-3-yl}benzamide] were 1 nM, 4.8 nM and 141 nM.
The like results for `COCc1cc(-c2nc(-c3ccc(C(N)=O)c(F)c3)no2)ccc1-c1ccccc1C` [Example 179, 2-fluoro-4-{5-[2-(methoxymethyl)-2′-methylbiphenyl-4-yl]-1,2,4-oxadiazol-3-yl}benzamide] were, in that order, 3 nM, 8 nM and 274 nM.
Regarding `COCc1cc(-c2nc(-c3cccc(C(=O)NCCC#N)c3)no2)ccc1-c1ccccc1C` [Example 183, N-(2-cyanoethyl)-3-{5-[2-(methoxymethyl)-2′-methylbiphenyl-4-yl]-1,2,4-oxadiazol-3-yl}benzamide], in assay [1], the Ki is 2 nM. Moreover, the figures for the EC50 in assay [2] and in assay [3] were 2.4 nM and 5600 nM, respectively.
The like results for `COCc1cc(-c2nc(-c3cccc(C(=O)NCCNC(C)=O)c3)no2)ccc1-c1ccccc1C` [Example 184, N-[2-(acetylamino)ethyl]-3-{5-[2-(methoxymethyl)-2′-methylbiphenyl-4-yl]-1,2,4-oxadiazol-3-yl}benzamide] were, in that order, 1 nM, 3.3 nM and 4490 nM.
Taken in the same sequence, the figures for `COCc1cc(-c2nc(-c3cccc(CN(C)CCO)c3)no2)ccc1-c1ccccc1C` [Example 186, 2-[(3-{5-[2-(methoxymethyl)-2′-methylbiphenyl-4-yl]-1,2,4-oxadiazol-3-yl}benzyl)(methyl)amino]ethanol, Hydrochloride salt] were 0.8 nM, 1.1 nM and 1620 nM.
In assay [1], `COCc1cc(-c2nc(-c3cccc(CO)c3)no2)ccc1-c1ccccc1C` [Example 189, (3-{5-[2-(methoxymethyl)-2′-methylbiphenyl-4-yl]-1,2,4-oxadiazol-3-yl}phenyl)methanol] had a Ki of 1 nM. Also, the EC50 in assay [2] stood at 2.1 nM; in assay [3] it was 574 nM.
The like results for `COCc1cc(-c2nc(-c3cccc(S(C)(=O)=O)c3)no2)ccc1-c1ccccc1C` [Example 194, 5-[2-(methoxymethyl)-2′-methylbiphenyl-4-yl]-3-[3-(methylsulfonyl)phenyl]-1,2,4-oxadiazole] were, in that order, 1.6 nM, 1 nM and 1720 nM.
